Values of other authors in US20260256742A1, “ANDROGEN RECEPTOR ANTAGONISTS FOR THE TREATMENT OF PATIENTS WITH BIOCHEMICAL RECURRENCE OF HORMONE SENSITIVE PROSTATE CANCER” (BAYER CONSUMER CARE AG, priority 2023, published 2026).

Experiments:
[1] = all investigated species including man; cited from earlier work
nine CYP isoforms = conditions: in vitro; cited from earlier work
CYP2B6 = conditions: in vitro; cited from earlier work
[2] = molecular target: T1, multidrug and toxin extrusion (MATE)1 (Homo sapiens, UniProt Q96FL8); conditions: in vitro; cited from earlier work
T1 sequence (Q96FL8 1-570): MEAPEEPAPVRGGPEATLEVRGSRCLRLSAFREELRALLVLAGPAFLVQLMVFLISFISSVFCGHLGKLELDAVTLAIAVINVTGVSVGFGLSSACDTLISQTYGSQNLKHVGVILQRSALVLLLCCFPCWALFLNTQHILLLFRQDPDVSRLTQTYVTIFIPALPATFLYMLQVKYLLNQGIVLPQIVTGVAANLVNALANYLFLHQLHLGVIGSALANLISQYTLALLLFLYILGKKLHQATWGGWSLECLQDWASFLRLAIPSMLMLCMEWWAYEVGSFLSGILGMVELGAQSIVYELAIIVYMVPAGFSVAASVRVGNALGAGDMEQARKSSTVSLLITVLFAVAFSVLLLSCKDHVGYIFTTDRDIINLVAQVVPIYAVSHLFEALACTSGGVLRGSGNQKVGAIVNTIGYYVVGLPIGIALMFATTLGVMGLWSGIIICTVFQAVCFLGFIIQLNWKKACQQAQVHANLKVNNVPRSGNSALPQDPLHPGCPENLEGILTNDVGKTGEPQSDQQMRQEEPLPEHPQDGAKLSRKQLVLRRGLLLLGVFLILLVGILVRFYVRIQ

[3] = molecular target: T2, organic anion-transporting polypeptide (OATP)1B1 (Homo sapiens, UniProt Q9Y6L6); conditions: in vitro; cited from earlier work
T2 sequence (Q9Y6L6 1-691): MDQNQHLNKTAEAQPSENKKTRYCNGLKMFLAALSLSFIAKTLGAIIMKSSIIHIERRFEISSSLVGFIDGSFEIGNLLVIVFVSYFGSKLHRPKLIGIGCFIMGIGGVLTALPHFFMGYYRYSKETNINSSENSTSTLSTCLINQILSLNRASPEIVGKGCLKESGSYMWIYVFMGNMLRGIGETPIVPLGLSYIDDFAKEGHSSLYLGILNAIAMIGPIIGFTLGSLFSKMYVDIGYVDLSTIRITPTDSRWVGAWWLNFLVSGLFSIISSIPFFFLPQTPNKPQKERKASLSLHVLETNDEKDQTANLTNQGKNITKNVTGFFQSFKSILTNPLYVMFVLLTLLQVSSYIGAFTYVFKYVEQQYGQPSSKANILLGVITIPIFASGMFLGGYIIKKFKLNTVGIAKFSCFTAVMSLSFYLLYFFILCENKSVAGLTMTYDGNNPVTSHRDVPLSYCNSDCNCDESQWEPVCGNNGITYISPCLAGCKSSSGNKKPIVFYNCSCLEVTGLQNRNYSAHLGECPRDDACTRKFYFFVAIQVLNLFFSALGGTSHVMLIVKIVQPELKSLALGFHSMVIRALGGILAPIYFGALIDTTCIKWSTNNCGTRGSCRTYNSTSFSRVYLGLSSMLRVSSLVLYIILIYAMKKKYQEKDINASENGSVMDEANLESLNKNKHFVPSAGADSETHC

OATP1B3 = molecular target: T3, OATP1B3 (Homo sapiens, UniProt Q9NPD5); conditions: in vitro; cited from earlier work
T3 sequence (Q9NPD5 1-702): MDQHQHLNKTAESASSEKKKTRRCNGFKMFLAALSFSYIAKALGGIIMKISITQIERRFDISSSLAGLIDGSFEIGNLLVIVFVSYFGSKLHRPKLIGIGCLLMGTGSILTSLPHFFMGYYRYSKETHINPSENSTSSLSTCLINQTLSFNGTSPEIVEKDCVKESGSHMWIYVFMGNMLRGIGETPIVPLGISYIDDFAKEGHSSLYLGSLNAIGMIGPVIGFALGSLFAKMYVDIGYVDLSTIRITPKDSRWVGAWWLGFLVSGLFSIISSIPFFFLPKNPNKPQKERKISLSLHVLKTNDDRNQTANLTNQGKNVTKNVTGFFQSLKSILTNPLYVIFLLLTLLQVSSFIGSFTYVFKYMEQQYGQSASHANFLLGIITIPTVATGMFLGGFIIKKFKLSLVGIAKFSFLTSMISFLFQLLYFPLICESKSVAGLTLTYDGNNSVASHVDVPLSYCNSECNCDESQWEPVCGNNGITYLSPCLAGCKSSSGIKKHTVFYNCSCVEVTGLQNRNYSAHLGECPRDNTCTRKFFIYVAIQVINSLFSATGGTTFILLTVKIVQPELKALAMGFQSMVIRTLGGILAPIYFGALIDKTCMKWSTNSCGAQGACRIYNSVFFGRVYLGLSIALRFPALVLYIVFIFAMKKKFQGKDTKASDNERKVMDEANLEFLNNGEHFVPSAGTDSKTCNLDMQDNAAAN

CC(O)c1cc(C(=O)N[C@@H](C)Cn2ccc(-c3ccc(C#N)c(Cl)c3)n2)[nH]n1 (stereo partly drawn) [Darolutamide]
major metabolites observed in plasma [1]: Only one major metabolite, keto-darolutamide | inhibition of enzymatic activity of nine CYP isoforms (nine CYP isoforms): not inhibited or slightly inhibited | induction of CYP2B6 activity (CYP2B6): no relevant induction | inhibition of MATE1-mediated transport [2]: observed | inhibition of OATP1B1-mediated transport [3]: observed | inhibition of OATP1B3-mediated transport (OATP1B3): observed
